Read-outs that look alike come from different tables or passages of the source. Marks after values point to notes of the source that are not given here.
How the values were obtained:
[1] = system: patients with advanced or metastatic solid tumors
HER2 = conditions: read-out: half-maximal inhibitory concentration (IC50); cited from earlier work
[2] = system: patients with advanced solid tumors; conditions: cited from earlier work
[3] = system: patients with advanced or metastatic solid tumors; conditions: in vivo
HER4 = conditions: read-out: half-maximal inhibitory concentration (IC50); cited from earlier work
advanced solid tumors = assay: Antitumor activity by RECIST; format: in vivo, human
[4] = Plasma pharmacokinetics, noncompartmental analysis; format: in vivo, human; conditions: for clearance: total body clearance
[5] = 20 mg q.d. oral, Day 27 steady state, n = 3
[6] = 60 mg q.d. oral, Day 27 steady state, individual value from one patient

SMILES: CN(C)C/C=C/C(=O)Nc1cc2c(Nc3ccc(F)c(Cl)c3)ncnc2cc1O[C@H]1CCOC1 [afatinib]
- Patients discontinued owing to Disease progression ([1]; 10 mg/day): 4 (80) n, %
- Patients discontinued owing to Disease progression ([1]; 20 mg/day): 3 (100) n, %
- Patients discontinued owing to Disease progression ([1]; 40 mg/day): 14 (73.7) n, %
- Patients discontinued owing to Disease progression ([1]; 60 mg/day): 1 (33.3) n, %
- Patients discontinued owing to Disease progression ([1]; Total): 22 (73.3) n, %
- MTD ([1]; continuous once-daily oral, 28-day cycles): 40 mg/day
- IC50 (HER2): 14 nM
- dose that could be safely administered ([2]; 2-week on/2-week off schedule): 70 mg/day
- dose administered with tolerable side effects ([2]; 3-week on/1-week off schedule): 40 mg/day
- maximum tolerated dose (MTD) ([2]; 3-week on/1-week off schedule): 55 mg/day
- recommended Phase II dose (RP2D) ([2]; once-daily, 2-week on/off schedule): 70 mg
- Patients discontinued owing to DLT ([3]; human): 2 (6.7) n, %
- Patients discontinued owing to Other AEs ([3]; human): 3 (10.0) n, %
- dermatitis acneiform, treatment-related AE, patients ([3]; human): 33.3%
- diarrhea, treatment-related AE, patients ([3]; human): 76.7%
- fatigue, treatment-related AE, patients ([3]; human): 33.3%
- mucosal inflammation, treatment-related AE, patients ([3]; human): 43.3%
- onset of diarrhea during the first treatment course, patients ([3]; human): 70%
- patients with AEs considered related to study medication ([3]; human): 29
- patients with at least one AE ([3]; human): 30
- Patients with DLT events during the initial 28-day treatment period ([3]; human, 28 days): 3 n
- cardiac events [3]: No cardiac events were reported
- patients with DLT, in total [3]: three patients
- IC50 (HER4): 1 nM
- patients with stable disease (advanced solid tumors; 40 mg dose cohort): Five
- objective responses (advanced solid tumors; 29 evaluable patients, RECIST): No objective responses
- patients remaining on treatment for more than 16 weeks (advanced solid tumors; one in 20 mg/d group, two in 40 mg/d group): Three
- duration of stable disease (advanced solid tumors; one ovarian cancer patient, 20 mg group): 204 days
- Cpre,ss gMean ([4]; 10 mg q.d. oral, Day 27 steady state, N = 2): 2.64^b ng/mL
- CL/F,ss gMean ([4]; 10 mg q.d. oral, Day 27 steady state, n = 3): 2980 mL/min
- CL/F,ss gMean [4, 5]: 755 mL/min
- Cpre,ss gMean [4, 5]: 12.5 ng/mL
- Cpre,ss gMean ([4]; 40 mg q.d. oral, Day 27 steady state, N = 16): 16.1^c ng/mL
- CL/F,ss [4, 6]: 567 mL/min
- Cpre,ss [4, 6]: 52.3 ng/mL
- dose-proportionality ([4]; 10-60 mg, steady state): no obvious deviation from dose-proportionality
- steady-state reached ([4]; Treatment Period 1, once-daily oral): ≤ 8 days
- half-life ([4]; human, plasma, oral): 37.4 h
- Vd ([4]; human, plasma, oral, apparent volume of distribution during the terminal phase, overall gMean, all groups (data not shown)): 3630 L
- clearance ([4]; human, plasma, oral, gMean, range across dose groups): 567 to 2980 mL/min
- clearance ([4]; human, plasma, oral, overall gMean, across all groups (data not shown)): 1330 mL/min
- half-life ([4]; human, plasma, po): 34 to 48 h
